Assay results: ChEMBL document CHEMBL1909046, “DrugMatrix in vitro pharmacology data”

Tests used:
[1] = molecular target: T1, Alpha-1B adrenergic receptor (Rattus norvegicus, UniProt P15823); experiment: DRUGMATRIX: Alpha-1B adrenergic receptor radioligand binding (ligand: prazosin); type: cell membranes, Wistar, Liver, Membrane; conditions: Not Active = under 50% inhibition at 10 µM
T1 sequence (P15823 whole entry): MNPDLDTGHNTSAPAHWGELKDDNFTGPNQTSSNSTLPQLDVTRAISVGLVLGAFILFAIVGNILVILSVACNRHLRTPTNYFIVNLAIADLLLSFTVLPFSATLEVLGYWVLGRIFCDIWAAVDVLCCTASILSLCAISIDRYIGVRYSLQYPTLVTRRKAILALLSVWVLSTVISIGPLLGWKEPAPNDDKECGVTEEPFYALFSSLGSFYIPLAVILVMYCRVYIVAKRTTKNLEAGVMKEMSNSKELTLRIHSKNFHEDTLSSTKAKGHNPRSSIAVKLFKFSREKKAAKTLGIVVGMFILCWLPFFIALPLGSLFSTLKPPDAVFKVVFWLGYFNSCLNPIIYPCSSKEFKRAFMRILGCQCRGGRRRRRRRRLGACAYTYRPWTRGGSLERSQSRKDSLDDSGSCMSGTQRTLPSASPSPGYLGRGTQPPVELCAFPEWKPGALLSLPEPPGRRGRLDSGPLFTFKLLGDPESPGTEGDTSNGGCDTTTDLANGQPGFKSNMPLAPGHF

[2] = molecular target: T2, Alpha-1D adrenergic receptor (Homo sapiens, UniProt P25100); type: cell membranes, HEK293, Membrane; conditions: hek293; further: in other assays of this panel Not Active means under 50% inhibition at 10 µM
T2 sequence (P25100 whole entry): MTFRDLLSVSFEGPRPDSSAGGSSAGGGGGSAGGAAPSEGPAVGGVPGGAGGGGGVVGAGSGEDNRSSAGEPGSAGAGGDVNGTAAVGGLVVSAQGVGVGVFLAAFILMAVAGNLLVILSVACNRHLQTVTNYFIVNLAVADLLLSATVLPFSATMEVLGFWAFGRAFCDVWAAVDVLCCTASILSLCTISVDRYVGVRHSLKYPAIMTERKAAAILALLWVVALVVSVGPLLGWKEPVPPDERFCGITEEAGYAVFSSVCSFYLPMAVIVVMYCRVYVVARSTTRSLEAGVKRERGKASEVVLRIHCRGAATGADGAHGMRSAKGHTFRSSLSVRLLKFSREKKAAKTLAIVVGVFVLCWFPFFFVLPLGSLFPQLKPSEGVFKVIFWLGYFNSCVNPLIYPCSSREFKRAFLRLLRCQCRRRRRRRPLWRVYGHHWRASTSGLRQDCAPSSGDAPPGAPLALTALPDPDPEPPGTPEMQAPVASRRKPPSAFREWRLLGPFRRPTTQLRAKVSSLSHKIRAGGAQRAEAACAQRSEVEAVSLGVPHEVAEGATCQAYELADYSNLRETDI

Mu-type opioid receptor = Mu-type opioid receptor (Homo sapiens, UniProt P35372); experiment: DRUGMATRIX: Opiate mu (OP3, MOP) radioligand binding (ligand: [3H] Diprenorphine); type: cell membranes, CHO-K1, Membrane; conditions: cho-k1; Not Active = under 50% inhibition at 10 µM
Mu-type opioid receptor, sequence (P35372 whole entry): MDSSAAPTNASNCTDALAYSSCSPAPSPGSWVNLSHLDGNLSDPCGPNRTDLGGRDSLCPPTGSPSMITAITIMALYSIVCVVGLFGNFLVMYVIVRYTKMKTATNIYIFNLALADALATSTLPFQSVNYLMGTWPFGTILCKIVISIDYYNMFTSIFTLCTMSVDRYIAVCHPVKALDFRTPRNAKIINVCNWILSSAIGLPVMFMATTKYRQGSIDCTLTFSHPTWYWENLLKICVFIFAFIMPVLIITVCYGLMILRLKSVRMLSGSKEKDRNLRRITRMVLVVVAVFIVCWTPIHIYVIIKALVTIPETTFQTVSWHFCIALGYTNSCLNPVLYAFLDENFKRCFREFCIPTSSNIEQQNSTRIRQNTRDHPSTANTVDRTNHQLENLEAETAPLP

[3] = molecular target: Mitogen-activated protein kinase 1 (Homo sapiens, UniProt P28482); experiment: DRUGMATRIX: Protein Serine/Threonine Kinase, ERK2 enzyme inhibition (substrate: Myelin Basic Protein); set-up: species or system Escherichia coli; conditions: Not Active = under 50% inhibition at 10 µM
Mitogen-activated protein kinase 1, sequence (P28482 whole entry): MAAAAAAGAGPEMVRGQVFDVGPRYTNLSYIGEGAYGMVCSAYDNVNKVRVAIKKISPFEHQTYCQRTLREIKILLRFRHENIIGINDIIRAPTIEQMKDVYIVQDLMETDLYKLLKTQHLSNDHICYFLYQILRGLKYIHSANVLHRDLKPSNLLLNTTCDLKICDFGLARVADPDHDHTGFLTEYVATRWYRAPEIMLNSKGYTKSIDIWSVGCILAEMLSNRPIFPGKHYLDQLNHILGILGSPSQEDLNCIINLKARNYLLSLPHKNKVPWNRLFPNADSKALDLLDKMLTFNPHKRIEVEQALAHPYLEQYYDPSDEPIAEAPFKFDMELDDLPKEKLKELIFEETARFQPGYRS

Cytochrome P450 2C19 = Cytochrome P450 2C19 (Homo sapiens, UniProt P33261); conditions: bti-tn-5b1-4; further: in other assays of this panel Not Active means under 50% inhibition at 10 µM
Cytochrome P450 2C19, sequence (P33261 whole entry): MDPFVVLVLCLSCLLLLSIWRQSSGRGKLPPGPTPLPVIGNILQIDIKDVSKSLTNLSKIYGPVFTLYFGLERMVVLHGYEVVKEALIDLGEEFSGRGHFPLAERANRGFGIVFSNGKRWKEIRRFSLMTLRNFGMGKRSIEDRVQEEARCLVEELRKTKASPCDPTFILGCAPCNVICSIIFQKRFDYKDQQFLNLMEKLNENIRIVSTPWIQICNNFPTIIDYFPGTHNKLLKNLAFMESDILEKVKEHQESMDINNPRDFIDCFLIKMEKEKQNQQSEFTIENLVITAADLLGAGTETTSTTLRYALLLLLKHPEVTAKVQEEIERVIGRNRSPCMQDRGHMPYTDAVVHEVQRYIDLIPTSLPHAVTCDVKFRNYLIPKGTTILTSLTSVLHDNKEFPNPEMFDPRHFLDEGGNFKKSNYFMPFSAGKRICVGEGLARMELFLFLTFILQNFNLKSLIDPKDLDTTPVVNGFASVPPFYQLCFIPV

Cytochrome P450 2E1 = Cytochrome P450 2E1 (Homo sapiens, UniProt P05181); conditions: bti-tn-5b1-4; further: in other assays of this panel Not Active means under 50% inhibition at 10 µM
Cytochrome P450 2E1, sequence (P05181 whole entry): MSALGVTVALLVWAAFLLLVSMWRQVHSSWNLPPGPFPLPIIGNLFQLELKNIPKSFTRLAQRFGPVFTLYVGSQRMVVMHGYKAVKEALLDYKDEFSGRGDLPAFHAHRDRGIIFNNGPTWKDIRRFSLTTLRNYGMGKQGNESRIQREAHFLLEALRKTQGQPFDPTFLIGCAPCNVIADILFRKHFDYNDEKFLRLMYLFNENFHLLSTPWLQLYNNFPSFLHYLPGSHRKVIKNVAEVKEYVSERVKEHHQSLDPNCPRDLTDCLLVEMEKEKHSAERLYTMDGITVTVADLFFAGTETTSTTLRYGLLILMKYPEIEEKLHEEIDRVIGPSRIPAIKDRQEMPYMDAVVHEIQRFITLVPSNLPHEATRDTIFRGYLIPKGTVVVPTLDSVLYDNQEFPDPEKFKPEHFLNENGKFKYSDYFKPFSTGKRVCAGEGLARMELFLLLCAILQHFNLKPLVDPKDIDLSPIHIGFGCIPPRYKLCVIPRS

C[C@]12CC[C@H]3[C@@H](CCC4=CC(=O)CC[C@@]43C)[C@@H]1CC[C@@H]2O [TESTOSTERONE]
IC50 [1]: Not Active
IC50 [2]: Not Active
IC50 (Mu-type opioid receptor): Not Active
IC50 [3]: Not Active
IC50 (Cytochrome P450 2C19): Not Active
Ki (Cytochrome P450 2C19): Not Active
IC50 (Cytochrome P450 2E1): Not Active
Ki (Cytochrome P450 2E1): Not Active

CC(C)(C)NC[C@H](O)COc1nsnc1N1CCOCC1 [TIMOLOL]
IC50 [1]: Not Active
IC50 [2]: Not Active
IC50 (Mu-type opioid receptor): Not Active
IC50 [3]: Not Active
IC50 (Cytochrome P450 2C19): Not Active
Ki (Cytochrome P450 2C19): Not Active
IC50 (Cytochrome P450 2E1): Not Active
Ki (Cytochrome P450 2E1): Not Active

C[C@@H]1C[C@H]2[C@@H]3CCC4=CC(=O)C=C[C@]4(C)C3=CC[C@]2(C)[C@H]1C(=O)CN1CCN(c2cc(N3CCCC3)nc(N3CCCC3)n2)CC1 [TIRILAZAD]
IC50 [1]: Not Active
IC50 [2]: Not Active
IC50 (Mu-type opioid receptor): Not Active
IC50 [3]: Not Active
IC50 (Cytochrome P450 2C19): Not Active
Ki (Cytochrome P450 2C19): Not Active
IC50 (Cytochrome P450 2E1): Not Active
Ki (Cytochrome P450 2E1): Not Active

NC[C@H]1O[C@H](O[C@H]2[C@H](O)[C@@H](O[C@H]3O[C@H](CO)[C@@H](O)[C@H](N)[C@H]3O)[C@H](N)C[C@@H]2N)[C@H](N)C[C@@H]1O [TOBRAMYCIN]
IC50 [1]: Not Active
IC50 [2]: Not Active
IC50 (Mu-type opioid receptor): Not Active
IC50 [3]: Not Active
IC50 (Cytochrome P450 2C19): Not Active
Ki (Cytochrome P450 2C19): Not Active
IC50 (Cytochrome P450 2E1): Not Active
Ki (Cytochrome P450 2E1): Not Active

CC(=O)O[C@H]1C[C@@H]2CC[C@@H]3[C@H](CC[C@@]4(C)[C@H]3C[C@H]([N+]3(C)CCCCC3)[C@@H]4OC(C)=O)[C@@]2(C)C[C@@H]1N1CCCCC1.[Br-] [VECURONIUM BROMIDE]
IC50 [1]: Not Active
IC50 [2]: Not Active
IC50 (Mu-type opioid receptor): Not Active
IC50 [3]: Not Active
IC50 (Cytochrome P450 2C19): Not Active
Ki (Cytochrome P450 2C19): Not Active
IC50 (Cytochrome P450 2E1): Not Active
Ki (Cytochrome P450 2E1): Not Active

COc1cc(C(=O)NS(=O)(=O)c2ccccc2C)ccc1Cc1cn(C)c2ccc(NC(=O)OC3CCCC3)cc12 [ZAFIRLUKAST]
IC50 [1]: Not Active
IC50 [2]: Not Active
IC50 (Mu-type opioid receptor): Not Active
IC50 ([3]; read-out: IC50): 538 nM
IC50 (Cytochrome P450 2C19): Not Active
Ki (Cytochrome P450 2C19): Not Active
IC50 (Cytochrome P450 2E1): Not Active
Ki (Cytochrome P450 2E1): Not Active

Cc1cn([C@H]2C[C@H](N=[N+]=[N-])[C@@H](CO)O2)c(=O)[nH]c1=O [ZIDOVUDINE]
IC50 [1]: Not Active
IC50 [2]: Not Active
IC50 (Mu-type opioid receptor): Not Active
IC50 [3]: Not Active
IC50 (Cytochrome P450 2C19): Not Active
Ki (Cytochrome P450 2C19): Not Active
IC50 (Cytochrome P450 2E1): Not Active
Ki (Cytochrome P450 2E1): Not Active
